Common to all, as to assay type: functional, cell-based
One experiment has as its system HeLa. As to the kind of experiment: Cytotoxicity against human HeLa cells after 48 hrs by MTT assay. (In general: Tetrazolium dyes change colour on reduction, which living cells bring about.)
Another experiment deals with A549. The experiment is described as follows: Cytotoxicity against human A549 cells after 48 hrs by MTT assay. To be noted: A549, 48 h.
The test system of a further experiment is DU-145. As to the kind of experiment: Cytotoxicity against human DU145 cells after 48 hrs by MTT assay. To be noted: DU-145, 48 h.

For orientation: IC50 means the concentration needed to halve the response being measured. Low values mean inhibition by little substance, high ones a need for much substance. Regarding `COc1ccc(-n2nc(C)c3c(=O)oc4ccccc4c32)cc1`, the figures for the IC50 in the experiment with HeLa, with A549 and with DU-145 were 190 µM, 27 µM and 175 µM, respectively.
Regarding `Cc1nn(-c2ccc(Cl)cc2)c2c1c(=O)oc1ccccc12`, the half-inhibitory concentration (IC50) with HeLa turned out to be 83 µM; with A549, 136 µM; in the experiment on DU-145 it was 121 µM.
In the same order, the values of `COC(=O)c1c(-c2cc3ccccc3oc2=O)nn(-c2cccc(Cl)c2)c1C(=O)OC` are 76 µM, 30 µM and 32 µM.
Take `Cc1nn(-c2cccc(F)c2)c2c1c(=O)oc1ccccc12`: the IC50 in the experiment with HeLa was determined as 276 µM; with A549, 125 µM; in the experiment on DU-145, 134 µM.
Taken in the same sequence, the figures for `Cc1nn(-c2ccc(Br)cc2)c2c1c(=O)oc1ccccc12` were 130 µM, 130 µM and 53 µM.
As to `COc1ccc2oc(=O)c3c(C)nn(-c4ccccc4)c3c2c1`, the half-inhibitory concentration (IC50) in the experiment with HeLa worked out at 115 µM; in the experiment with A549, 150 µM; in the experiment with DU-145 it was 150 µM.
For the molecule `O=c1oc2ccccc2c2c1cnn2-c1ccccc1`, the figures for the IC50 in the experiment with HeLa, with A549 and with DU-145 were 165 µM, 175 µM and 125 µM, respectively.
`Cc1cccc(-n2ncc3c(=O)oc4ccccc4c32)c1`: the half-inhibitory concentration (IC50) in the experiment on HeLa amounted to 135 µM; in the experiment on A549, 160 µM; in the experiment with DU-145, 100 µM.
Taken in the same sequence, the figures for `O=c1oc2ccccc2c2c1cnn2-c1cccc(Cl)c1` were 110 µM, 110 µM and 60 µM.
In the same order, the values of `Cc1ccc2oc(=O)c3cnn(-c4ccccc4)c3c2c1` are 192 µM, 125 µM and 110 µM.
Taken in the same sequence, the figures for `Cc1cccc(-n2ncc3c(=O)oc4ccc(C)cc4c32)c1` were 150 µM, 145 µM and 130 µM.
On to `Cc1ccc2oc(=O)c3cnn(-c4cccc(Cl)c4)c3c2c1`, for which the IC50 in the experiment with HeLa turned out to be 120 µM; in the experiment on A549, 150 µM; in the experiment with DU-145, 105 µM.
Taken in the same sequence, the figures for `CCOC(=O)c1c(-c2cc3ccccc3oc2=O)nn(-c2ccc(C)c(C)c2)c1C(=O)OCC` were 50 µM, 52 µM and 40 µM.
In the same order, the values of `CCOC(=O)c1c(-c2cc3ccccc3oc2=O)nn(-c2ccc(OC)cc2)c1C(=O)OCC` are 90 µM, 86 µM and 39 µM.
Taken in the same sequence, the figures for `CCOC(=O)c1c(-c2cc3ccccc3oc2=O)nn(-c2cccc(Cl)c2)c1C(=O)OCC` were 22 µM, 28 µM and 35 µM.
Take `CCOC(=O)c1c(-c2cc3ccccc3oc2=O)nn(-c2cccc(F)c2)c1C(=O)OCC`: the half-maximal inhibitory concentration (IC50) with HeLa is 68 µM; with A549, 59 µM; in the experiment on DU-145, 32 µM.
Taken in the same sequence, the figures for `COC(=O)c1c(-c2cc3ccccc3oc2=O)nn(-c2cccc(F)c2)c1C(=O)OC` were 76 µM, 50 µM and 37 µM.
In the same order, the values of `CCOC(=O)c1c(-c2cc3ccccc3oc2=O)nn(-c2ccc(Cl)cc2)c1C(=O)OCC` are 87 µM, 35 µM and 26 µM.
In the same order, the values of `CCOC(=O)c1c(-c2cc3ccccc3oc2=O)nn(-c2ccc(Br)cc2)c1C(=O)OCC` are 250 µM, 100 µM and 61 µM.
Turning to `COC(=O)c1c(-c2cc3ccccc3oc2=O)nn(-c2ccc(Br)cc2)c1C(=O)OC`, the figures for the IC50 with HeLa, with A549 and in the experiment on DU-145 were 120 µM, 165 µM and 93 µM, respectively.
Taken in the same sequence, the figures for `CCOC(=O)c1c(-c2cc3cc(OC)ccc3oc2=O)nn(-c2ccccc2)c1C(=O)OCC` were 145 µM, 35 µM and 27 µM.
Taken in the same sequence, the figures for `CCOC(=O)c1c(-c2cc3cc(OC)ccc3oc2=O)nn(-c2cccc(C)c2)c1C(=O)OCC` were 155 µM, 102 µM and 31 µM.
With `CCOC(=O)c1c(-c2cc3cc(OC)ccc3oc2=O)nn(-c2cccc(Cl)c2)c1C(=O)OCC`, the IC50 in the experiment with HeLa came out at 160 µM; with A549 it was 148 µM; in the experiment on DU-145, 29 µM.
In the same order, the values of `CCOC(=O)c1c(-c2cc3ccc(OC)cc3oc2=O)nn(-c2ccccc2)c1C(=O)OCC` are 140 µM, 132 µM and 33 µM.
Taken in the same sequence, the figures for `CCOC(=O)c1c(-c2cc3ccc(OC)cc3oc2=O)nn(-c2cccc(C)c2)c1C(=O)OCC` were 35 µM, 171 µM and 35 µM.
In the same order, the values of `CCOC(=O)c1c(-c2cc3ccc(OC)cc3oc2=O)nn(-c2cccc(Cl)c2)c1C(=O)OCC` are 205 µM, 221 µM and 38 µM.
With `CCOC(=O)c1c(-c2cc3ccc(OCC=C(C)C)cc3oc2=O)nn(-c2ccccc2)c1C(=O)OCC`, the half-inhibitory concentration (IC50) in the experiment on HeLa turned out to be 130 µM; with A549 it was 136 µM; in the experiment on DU-145, 75 µM.
For `CCOC(=O)c1c(-c2cc3ccc(OCC=C(C)C)cc3oc2=O)nn(-c2cccc(C)c2)c1C(=O)OCC`, the IC50 with HeLa came to 150 µM; in the experiment with A549 it was 178 µM; in the experiment with DU-145, 125 µM.
In the case of `CCOC(=O)c1c(-c2cc3ccc(OCC=C(C)C)cc3oc2=O)nn(-c2cccc(Cl)c2)c1C(=O)OCC`, the IC50 came to 110 µM with HeLa, 163 µM in the experiment with A549 and 139 µM in the experiment on DU-145.
Taken in the same sequence, the figures for `CCOC(=O)c1c(-c2cc3c(ccc4ccccc43)oc2=O)nn(-c2ccccc2)c1C(=O)OCC` were 120 µM, 136 µM and 80 µM.
Taken in the same sequence, the figures for `CCOC(=O)c1c(-c2cc3c(ccc4ccccc43)oc2=O)nn(-c2cccc(C)c2)c1C(=O)OCC` were 155 µM, 179 µM and 259 µM.
On to `CCOC(=O)c1c(-c2cc3c(ccc4ccccc43)oc2=O)nn(-c2cccc(Cl)c2)c1C(=O)OCC`, for which the 50% inhibitory concentration (IC50) came out at 170 µM in the experiment with HeLa, 165 µM in the experiment on A549 and 257 µM with DU-145.
In the same order, the values of `CCOC(=O)c1c(-c2cc3cc4c(cc3oc2=O)OC(C)(C)CC4)nn(-c2ccccc2)c1C(=O)OCC` are 125 µM, 189 µM and 209 µM.
Taken in the same sequence, the figures for `CCOC(=O)c1c(-c2cc3cc4c(cc3oc2=O)OC(C)(C)CC4)nn(-c2cccc(C)c2)c1C(=O)OCC` were 105 µM, 175 µM and 67 µM.
Taken in the same sequence, the figures for `CCOC(=O)c1c(-c2cc3cc4c(cc3oc2=O)OC(C)(C)CC4)nn(-c2cccc(Cl)c2)c1C(=O)OCC` were 145 µM, 146 µM and 74 µM.
Turning to `CCOC(=O)c1c(-c2c(Cl)c3ccccc3oc2=O)nn(-c2ccccc2)c1C(=O)OCC`, the values for the IC50 in the experiment with HeLa, in the experiment on A549 and with DU-145 were 100 µM, 34 µM and 48 µM, respectively.
For `CCOC(=O)c1c(-c2c(Cl)c3ccccc3oc2=O)nn(-c2cccc(C)c2)c1C(=O)OCC`, the results for the IC50 in the experiment with HeLa, with A549 and in the experiment on DU-145 were 30 µM, 36 µM and 32 µM, respectively.
Taken in the same sequence, the figures for `CCOC(=O)c1c(-c2c(Cl)c3ccccc3oc2=O)nn(-c2ccc(OC)cc2)c1C(=O)OCC` were 27 µM, 18 µM and 25 µM.
Taken in the same sequence, the figures for `CCOC(=O)c1c(-c2c(Cl)c3ccccc3oc2=O)nn(-c2cccc(Cl)c2)c1C(=O)OCC` were 40 µM, 38 µM and 24 µM.
In the same order, the values of `CCOC(=O)c1c(-c2c(Cl)c3ccccc3oc2=O)nn(-c2ccc(Br)cc2)c1C(=O)OCC` are 500 µM, 30 µM and 32 µM.
For `CCOC(=O)c1c(-c2c(Cl)c3cc(C)ccc3oc2=O)nn(-c2ccccc2)c1C(=O)OCC`, the IC50 was determined as 228 µM in the experiment on HeLa, 108 µM in the experiment with A549 and 50 µM with DU-145.
Taken in the same sequence, the figures for `CCOC(=O)c1c(-c2c(Cl)c3cc(C)ccc3oc2=O)nn(-c2cccc(C)c2)c1C(=O)OCC` were 115 µM, 115 µM and 103 µM.
In the same order, the values of `CCOC(=O)c1c(-c2c(Cl)c3cc(C)ccc3oc2=O)nn(-c2cccc(Cl)c2)c1C(=O)OCC` are 125 µM, 128 µM and 156 µM.
Taken in the same sequence, the figures for `CCOC(=O)c1c(-c2cc3ccccc3oc2=O)nn(-c2ccccc2)c1C(=O)OCC` were 100 µM, 100 µM and 57 µM.
In the case of `COC(=O)c1c(-c2cc3ccccc3oc2=O)nn(-c2ccccc2)c1C(=O)OC`, the IC50 in the experiment on HeLa came to 35 µM; in the experiment on A549, 28 µM; in the experiment on DU-145, 30 µM.
Taken in the same sequence, the figures for `CCOC(=O)c1c(-c2cc3ccccc3oc2=O)nn(-c2cccc(C)c2)c1C(=O)OCC` were 245 µM, 52 µM and 47 µM.
For the molecule `COC(=O)c1c(-c2cc3ccccc3oc2=O)nn(-c2cccc(C)c2)c1C(=O)OC`, the results for the IC50 with HeLa, with A549 and with DU-145 were 45 µM, 51 µM and 35 µM, respectively.
In the same order, the values of `Cc1nn(-c2cccc(Cl)c2)c2c1c(=O)oc1ccccc12` are 175 µM, 85 µM and 139 µM.
Taken in the same sequence, the figures for `Cc1nn(-c2ccccc2)c2c1c(=O)oc1ccccc12` were 120 µM, 119 µM and 120 µM.
In the same order, the values of `Cc1cccc(-n2nc(C)c3c(=O)oc4ccccc4c32)c1` are 154 µM, 43 µM and 150 µM.
Turning to `COc1cccc2c1C(=O)c1c(O)c3c(c(O)c1C2=O)C[C@@](O)(C(=O)CO)C[C@@H]3O[C@H]1C[C@H](N)[C@H](O)[C@H](C)O1` [DOXORUBICIN], the half-maximal inhibitory concentration (IC50) amounted to 4.1 µM with HeLa, 4 µM with A549 and 6 µM with DU-145.
In the same order, the values of `COC(=O)Nc1nc2cc(C(=O)c3cccs3)ccc2[nH]1` [NOCODAZOLE] are 0.71 µM, 2.31 µM and 2.8 µM.

The values are drawn from ChEMBL document CHEMBL2401659, “Synthesis, anticancer activity and photophysical properties of novel substituted 2-oxo-2H-chromenylpyrazolecarboxylates” (Eur J Med Chem, 2013).
